Test: recombinant barcode read abundance after kanamycin selection (control-corrected) (log10(CPM+1)); higher = more efficient recombination; sequences stand for … in AGTGCAGAGAAAATCGGCCAGTTTTCTCTGCCTGCAGTCCGCATGCCGT…ATTTATGCAGCGGACTGCCTTTCTCCCAAAGTGATAAACCGGACAGTATCATGGACCGGTTTTCCCGGTAATCCGTATTTGCAAGGTTGGTTTCACT; site = the 11-nt target
Description: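 Same pooled E. coli target screen (IS621 bridge recombinase, kanamycin selection, control-corrected CPM, mean of 2 biological replicates). Here the two core-binding nucleotides of the LTG and RTG of the bridge RNA target-binding loop are mutated. Target and donor CT cores are held constant, and the other 9 guide positions match the target. The target is read from the library oligo sequence. Molecule = full bridge RNA written as DNA: nt 1-80 from the library oligo, rest WT scaffold.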

“AGGCCTCGATGGGTTCTAACCTGTTGCCTTC [AGGCCTCCTAG_LTGcore_GA_RTGcore_GA] (site AGGCCTCCTAG) (LTG core: GA, RTG core: GA)” and “AGGCCTCGTTGGGTTCTAACCTGTTGCCTAC [AGGCCTCCTAG_LTGcore_GT_RTGcore_GT] (site AGGCCTCCTAG) (LTG core: GT, RTG core: GT)” are within 0.2 log units of each other in “recombinant barcode read abundance (log10)” value: 0.206 for the first, 0.0637 for the second.

Going from “AGGCGGGAATGGGTTCTAACCTGTTGCGGAG [AGGCGGGCTCC_LTGcore_AA_RTGcore_CT] (site AGGCGGGCTCC) (LTG core: AA, RTG core: CT)” to “AGGCGGGAGTGGGTTCTAACCTGTTGCGGAG [AGGCGGGCTCC_LTGcore_AG_RTGcore_CT] (site AGGCGGGCTCC) (LTG core: AG, RTG core: CT)”, the “recombinant barcode read abundance (log10)” value falls from 0.668 to 0.325.

“AGGCGGGCTTGGGTTCTAACCTGTTGCGGCC [AGGCGGGCTCC_LTGcore_CT_RTGcore_GG] (site AGGCGGGCTCC) (LTG core: CT, RTG core: GG)” and “AGGCGGGCTTGGGTTCTAACCTGTTGCGGGC [AGGCGGGCTCC_LTGcore_CT_RTGcore_GC] (site AGGCGGGCTCC) (LTG core: CT, RTG core: GC)” are within 0.2 log units of each other in “recombinant barcode read abundance (log10)” value: 0.367 for the first, 0.249 for the second.

First: AGGCGGGCTTGGGTTCTAACCTGTTGCGGGT [AGGCGGGCTCC_LTGcore_CT_RTGcore_AC] (site AGGCGGGCTCC) (LTG core: CT, RTG core: AC)
Second: AGGCGGGCTTGGGTTCTAACCTGTTGCGGTT [AGGCGGGCTCC_LTGcore_CT_RTGcore_AA] (site AGGCGGGCTCC) (LTG core: CT, RTG core: AA)
The “recombinant barcode read abundance (log10)” value of the first is higher: 0.945 for the first, 0.0746 for the second.

“AGGCGGGGCTGGGTTCTAACCTGTTGCGGAG [AGGCGGGCTCC_LTGcore_GC_RTGcore_CT] (site AGGCGGGCTCC) (LTG core: GC, RTG core: CT)” and “AGGCGGGGTTGGGTTCTAACCTGTTGCGGAC [AGGCGGGCTCC_LTGcore_GT_RTGcore_GT] (site AGGCGGGCTCC) (LTG core: GT, RTG core: GT)” are within 0.2 log units of each other in “recombinant barcode read abundance (log10)” value: 0.207 for the first, 0.0704 for the second.

“AGGCGGGTCTGGGTTCTAACCTGTTGCGGGA [AGGCGGGCTCC_LTGcore_TC_RTGcore_TC] (site AGGCGGGCTCC) (LTG core: TC, RTG core: TC)” and “AGGCGGTATTGGGTTCTAACCTGTTGCTTAG [AGGCGGTCTAA_LTGcore_AT_RTGcore_CT] (site AGGCGGTCTAA) (LTG core: AT, RTG core: CT)” are within 0.2 log units of each other in “recombinant barcode read abundance (log10)” value: 0.156 for the first, 0.127 for the second.

Compared with “AGGCGGTCATGGGTTCTAACCTGTTGCTTTG [AGGCGGTCTAA_LTGcore_CA_RTGcore_CA] (site AGGCGGTCTAA) (LTG core: CA, RTG core: CA)”, “AGGCGGTCTTGGGTTCTAACCTGTTGCTTAC [AGGCGGTCTAA_LTGcore_CT_RTGcore_GT] (site AGGCGGTCTAA) (LTG core: CT, RTG core: GT)” is higher in “recombinant barcode read abundance (log10)” value: 0.128 for the first, 1.26 for the second.

“AGGCGGTTTTGGGTTCTAACCTGTTGCTTAA [AGGCGGTCTAA_LTGcore_TT_RTGcore_TT] (site AGGCGGTCTAA) (LTG core: TT, RTG core: TT)” and “AGTCTTAATTGGGTTCTAACCTGTTGCCAAG [AGTCTTACTTG_LTGcore_AT_RTGcore_CT] (site AGTCTTACTTG) (LTG core: AT, RTG core: CT)” are within 0.2 log units of each other in “recombinant barcode read abundance (log10)” value: 0.0993 for the first, 0.295 for the second.

“AGTCTTACATGGGTTCTAACCTGTTGCCAAG [AGTCTTACTTG_LTGcore_CA_RTGcore_CT] (site AGTCTTACTTG) (LTG core: CA, RTG core: CT)” and “AGTCTTACGTGGGTTCTAACCTGTTGCCAAG [AGTCTTACTTG_LTGcore_CG_RTGcore_CT] (site AGTCTTACTTG) (LTG core: CG, RTG core: CT)” are within 0.2 log units of each other in “recombinant barcode read abundance (log10)” value: 0.033 for the first, 0.0383 for the second.

“AGTCTTACTTGGGTTCTAACCTGTTGCCAAA [AGTCTTACTTG_LTGcore_CT_RTGcore_TT] (site AGTCTTACTTG) (LTG core: CT, RTG core: TT)” and “AGTCTTACTTGGGTTCTAACCTGTTGCCACG [AGTCTTACTTG_LTGcore_CT_RTGcore_CG] (site AGTCTTACTTG) (LTG core: CT, RTG core: CG)” are within 0.2 log units of each other in “recombinant barcode read abundance (log10)” value: 0.0465 for the first, 0.0125 for the second.

“AGTCTTACTTGGGTTCTAACCTGTTGCCAGC [AGTCTTACTTG_LTGcore_CT_RTGcore_GC] (site AGTCTTACTTG) (LTG core: CT, RTG core: GC)” and “AGTCTTACTTGGGTTCTAACCTGTTGCCAGG [AGTCTTACTTG_LTGcore_CT_RTGcore_CC] (site AGTCTTACTTG) (LTG core: CT, RTG core: CC)” are within 0.2 log units of each other in “recombinant barcode read abundance (log10)” value: 0.13 for the first, 0.196 for the second.

“AGTCTTATCTGGGTTCTAACCTGTTGCCAGA [AGTCTTACTTG_LTGcore_TC_RTGcore_TC] (site AGTCTTACTTG) (LTG core: TC, RTG core: TC)” and “ATGCTTTACTGGGTTCTAACCTGTTGCCTAG [ATGCTTTCTAG_LTGcore_AC_RTGcore_CT] (site ATGCTTTCTAG) (LTG core: AC, RTG core: CT)” are within 0.2 log units of each other in “recombinant barcode read abundance (log10)” value: 0.0509 for the first, 0.0722 for the second.

“ATGCTTTCATGGGTTCTAACCTGTTGCCTTG [ATGCTTTCTAG_LTGcore_CA_RTGcore_CA] (site ATGCTTTCTAG) (LTG core: CA, RTG core: CA)” and “ATGCTTTCGTGGGTTCTAACCTGTTGCCTCG [ATGCTTTCTAG_LTGcore_CG_RTGcore_CG] (site ATGCTTTCTAG) (LTG core: CG, RTG core: CG)” are within 0.2 log units of each other in “recombinant barcode read abundance (log10)” value: 0.1 for the first, 0.295 for the second.

“ATGCTTTCTTGGGTTCTAACCTGTTGCCTAT [ATGCTTTCTAG_LTGcore_CT_RTGcore_AT] (site ATGCTTTCTAG) (LTG core: CT, RTG core: AT)” and “ATGCTTTCTTGGGTTCTAACCTGTTGCCTGC [ATGCTTTCTAG_LTGcore_CT_RTGcore_GC] (site ATGCTTTCTAG) (LTG core: CT, RTG core: GC)” are within 0.2 log units of each other in “recombinant barcode read abundance (log10)” value: 0.128 for the first, 0.295 for the second.

“ATGCTTTCTTGGGTTCTAACCTGTTGCCTGT [ATGCTTTCTAG_LTGcore_CT_RTGcore_AC] (site ATGCTTTCTAG) (LTG core: CT, RTG core: AC)” and “ATGCTTTCTTGGGTTCTAACCTGTTGCCTTC [ATGCTTTCTAG_LTGcore_CT_RTGcore_GA] (site ATGCTTTCTAG) (LTG core: CT, RTG core: GA)” are within 0.2 log units of each other in “recombinant barcode read abundance (log10)” value: 0.101 for the first, 0.0663 for the second.

“ATGCTTTGGTGGGTTCTAACCTGTTGCCTAG [ATGCTTTCTAG_LTGcore_GG_RTGcore_CT] (site ATGCTTTCTAG) (LTG core: GG, RTG core: CT)” and “ATGCTTTGTTGGGTTCTAACCTGTTGCCTAC [ATGCTTTCTAG_LTGcore_GT_RTGcore_GT] (site ATGCTTTCTAG) (LTG core: GT, RTG core: GT)” are within 0.2 log units of each other in “recombinant barcode read abundance (log10)” value: 0.179 for the first, 0.302 for the second.

“ATGCTTTGTTGGGTTCTAACCTGTTGCCTAG [ATGCTTTCTAG_LTGcore_GT_RTGcore_CT] (site ATGCTTTCTAG) (LTG core: GT, RTG core: CT)” and “ATGTCCCACTGGGTTCTAACCTGTTGCTCAG [ATGTCCCCTGA_LTGcore_AC_RTGcore_CT] (site ATGTCCCCTGA) (LTG core: AC, RTG core: CT)” are within 0.2 log units of each other in “recombinant barcode read abundance (log10)” value: 0.0408 for the first, 0.172 for the second.

First: ATGTCCCCATGGGTTCTAACCTGTTGCTCAG [ATGTCCCCTGA_LTGcore_CA_RTGcore_CT] (site ATGTCCCCTGA) (LTG core: CA, RTG core: CT)
Second: ATGTCCCCTTGGGTTCTAACCTGTTGCTCTA [ATGTCCCCTGA_LTGcore_CT_RTGcore_TA] (site ATGTCCCCTGA) (LTG core: CT, RTG core: TA)
The “recombinant barcode read abundance (log10)” value of the first is higher: 0.527 for the first, 0.107 for the second.

“ATGTCCCCTTGGGTTCTAACCTGTTGCTCTC [ATGTCCCCTGA_LTGcore_CT_RTGcore_GA] (site ATGTCCCCTGA) (LTG core: CT, RTG core: GA)” and “ATGTCCCGCTGGGTTCTAACCTGTTGCTCGC [ATGTCCCCTGA_LTGcore_GC_RTGcore_GC] (site ATGTCCCCTGA) (LTG core: GC, RTG core: GC)” are within 0.2 log units of each other in “recombinant barcode read abundance (log10)” value: 0.0163 for the first, 0.103 for the second.

“ATGTCCCTATGGGTTCTAACCTGTTGCTCAG [ATGTCCCCTGA_LTGcore_TA_RTGcore_CT] (site ATGTCCCCTGA) (LTG core: TA, RTG core: CT)” and “ATGTCCCTATGGGTTCTAACCTGTTGCTCTA [ATGTCCCCTGA_LTGcore_TA_RTGcore_TA] (site ATGTCCCCTGA) (LTG core: TA, RTG core: TA)” are within 0.2 log units of each other in “recombinant barcode read abundance (log10)” value: 0.0463 for the first, 0.208 for the second.

“ATGTCCCTTTGGGTTCTAACCTGTTGCTCAA [ATGTCCCCTGA_LTGcore_TT_RTGcore_TT] (site ATGTCCCCTGA) (LTG core: TT, RTG core: TT)” and “CATATTAAGTGGGTTCTAACCTGTTGCCTCT [CATATTACTAG_LTGcore_AG_RTGcore_AG] (site CATATTACTAG) (LTG core: AG, RTG core: AG)” are within 0.2 log units of each other in “recombinant barcode read abundance (log10)” value: 0.0472 for the first, 0.0293 for the second.

“CATATTAATTGGGTTCTAACCTGTTGCCTAG [CATATTACTAG_LTGcore_AT_RTGcore_CT] (site CATATTACTAG) (LTG core: AT, RTG core: CT)” and “CATATTACATGGGTTCTAACCTGTTGCCTAG [CATATTACTAG_LTGcore_CA_RTGcore_CT] (site CATATTACTAG) (LTG core: CA, RTG core: CT)” are within 0.2 log units of each other in “recombinant barcode read abundance (log10)” value: 0.195 for the first, 0.126 for the second.
